Columns and labels:
Hepatitis C virus [1] = test: Antiviral activity against HCV genotype 1b in RP7 replicon cell after 4 days by blot hybridization analysis; assay type: functional, organism-based, Hepacivirus hominis; conditions: 96 h
[2] = Cytotoxicity against human NTZ-11 cell harboring HCV genotype 1b after 4 days by neutral red dye uptake assay; assay type: cell-based; conditions: NTZ-11 cells harboring HCV genotype 1b
[3] = Cytotoxicity against human RP7 cell harboring HCV genotype 1b after 4 days by neutral red dye uptake assay; assay type: cell-based; conditions: RP7 cells harboring HCV genotype 1b
[4] = Selectivity Index, ratio of CC50 for TIZ-9 cell harboring HCV genotype 1b to EC50 for HCV genotype 1b in TIZ-9 replicon cell
Hepatitis C virus [5] = test: Antiviral activity against HCV genotype 1b obtained from NTZ-11 cells infected in Huh7.5 cell assessed as viral-induced colony formation efficiency at 10 uM after 10 to 14 days in presence of 125 ug/ml G418; assay type: functional, Hepacivirus hominis
[6] = Cytotoxicity against human TIZ-9 cell harboring HCV genotype 1b after 4 days by neutral red dye uptake assay; assay type: cell-based; conditions: TIZ-9 cells harboring HCV genotype 1b
Hepatitis C virus [7] = test: Antiviral activity against HCV genotype 1b in TIZ-9 replicon cell after 4 days by blot hybridization analysis; assay type: functional, organism-based, Hepacivirus hominis; conditions: TIZ-9, 96 h
Hepatitis C virus [8] = test: Antiviral activity against HCV genotype 1b obtained from TIZ-9 cells infected in Huh7.5 cell assessed as viral-induced colony formation efficiency at 10 uM after 10 to 14 days in presence of 125 ug/ml G418; assay type: functional, Hepacivirus hominis
Hepatitis C virus [9] = test: Antiviral activity against HCV genotype 1b obtained from RP7 cells infected in Huh7.5 cell assessed as viral-induced colony formation efficiency at 10 uM after 10 to 14 days in presence of 125 ug/ml G418; assay type: functional, Hepacivirus hominis
[10] = Selectivity Index, ratio of CC50 for NTZ-11 cell harboring HCV genotype 1b to EC50 for HCV genotype 1b in NTZ-11 replicon cell
[11] = Selectivity Index, ratio of CC50 for RP7 cell harboring HCV genotype 1b to EC50 for HCV genotype 1b in RP7 replicon cell
Hepatitis C virus [12] = test: Antiviral activity against HCV genotype 1b in NTZ-11 replicon cell after 4 days by blot hybridization analysis; assay type: functional, organism-based, Hepacivirus hominis; conditions: NTZ-11, 96 h
Hepatitis C virus [13] = test: Antiviral activity against HCV genotype 1a in replicon system; assay type: functional, organism-based, Hepacivirus hominis; conditions: subtype 1a
Hepatitis C virus [14] = test: Antiviral activity against HCV genotype 1b obtained from RP7 cells infected in Huh7.5 cell assessed as viral-induced colony formation efficiency at 1 uM after 10 to 14 days in presence of 125 ug/ml G418; assay type: functional, Hepacivirus hominis
Hepatitis C virus [15] = test: Antiviral activity against HCV genotype 1b in replicon system; assay type: functional, organism-based, Hepacivirus hominis
Hepatitis C virus [16] = test: Antiviral activity against HCV genotype 1b obtained from TIZ-9 cells infected in Huh7.5 cell assessed as viral-induced colony formation efficiency at 1 uM after 10 to 14 days in presence of 125 ug/ml G418; assay type: functional, Hepacivirus hominis
Hepatitis C virus [17] = test: Antiviral activity against HCV genotype 1b obtained from NTZ-11 cells infected in Huh7.5 cell assessed as viral-induced colony formation efficiency at 1 uM after 10 to 14 days in presence of 125 ug/ml G418; assay type: functional, Hepacivirus hominis

Compound	EC50 (Hepatitis C virus [1])	EC90 (Hepatitis C virus [1])	CC50 at 96 h [2]	CC50 at 96 h [3]	Ratio CC50/EC50 [4]	Activity (Hepatitis C virus [5])	CC50 at 96 h [6]	EC50 (Hepatitis C virus [7])	EC90 (Hepatitis C virus [7])	Activity (Hepatitis C virus [8])	Activity (Hepatitis C virus [9])	Ratio CC50/EC50 [10]	Ratio CC50/EC50 [11]	EC50 (Hepatitis C virus [12])	EC90 (Hepatitis C virus [12])	EC50 (Hepatitis C virus [13])	Activity (Hepatitis C virus [14])	EC50 (Hepatitis C virus [15])	Activity (Hepatitis C virus [16])	Activity (Hepatitis C virus [17])
C[C@@]1(O)[C@H](O)[C@@H](CO)O[C@H]1n1ccc(N)nc1=O	2 µM	9 µM	> 300 µM	> 300 µM	>136	13%	> 300 µM	2.2 µM	8.9 µM	9%	10%	>158	>150	1.9 µM	6.1 µM					
CC(=O)Oc1ccccc1C(=O)Nc1ncc([N+](=O)[O-])s1 [NITAZOXANIDE]	0.16 µM	1.2 µM	68 µM	38 µM	65		97 µM	1.5 µM	26 µM			57	238	1.2 µM	17 µM	0.13 µM				
NC(=O)c1ncn([C@@H]2O[C@H](CO)[C@@H](O)[C@H]2O)n1 [RIBAVIRIN]	69 µM	122 µM	66 µM	77 µM	1.8		95 µM	52 µM	123 µM			1.4	1.1	47 µM	107 µM					
O=C(Nc1ncc([N+](=O)[O-])s1)c1ccccc1O [TIZOXANIDE]	0.15 µM	0.94 µM	74 µM	25 µM	46	0%	92 µM	2 µM	35 µM	0%	0%	67	167	1.1 µM	18 µM		7%	0.15 µM	12%	8%
